The numbers were not newly measured in patent US9849145B2, “Pharmaceutical composition containing honeysuckle extract and antibiotics, pharmaceutical kit, and use of honeysuckle extract for preparation of drug” (priority 2011, dated 2017), which cites them from elsewhere.

What all share (design): key: Resistant; Sensitive; Intermediate degree (moderate resistance)
One data set concerns Pseudomona aeruginosa. As to conditions: clinical isolate, specimen 12; cited from earlier work.
The subject of another data set is Escherichia coli. The following applies: clinical isolate, specimen 32042, urine; cited from earlier work.
Data set [1] has as its system Klebsiella pneumoniae. The following applies: clinical isolate, specimen 31494, sputum; cited from earlier work.
Another data set has as its system Staphylococcus aureus. The following applies: clinical isolate, specimen Y31692, secretion; cited from earlier work.
The subject of data set [2] is Klebsiella pneumoniae. The following applies: clinical isolate, specimen 31853, urine; cited from earlier work.

Regarding `NCC[C@H](O)C(=O)N[C@@H]1C[C@H](N)[C@@H](O[C@H]2O[C@H](CN)[C@@H](O)[C@H](O)[C@H]2O)[C@H](O)[C@H]1O[C@H]1O[C@H](CO)[C@@H](O)[C@H](N)[C@H]1O` [AMK, amikacin], in the data set on Pseudomona aeruginosa, the “resistance of Pseudomona aeruginosa to the antibiotic” value (from here on “resistance of Pseudomona aeruginosa”) is “S”. Moreover, the “resistance of Escherichia coli to the antibiotic” value (“resistance of Escherichia coli” for short) with Escherichia coli is “S”. For the same compound, in the data set on Klebsiella pneumoniae [1], the “drug resistant spectrum of the experimental strain of Klebsiella pneumoniae” value (“drug resistant spectrum” for short) was “S”. Moreover, the “resistance of Staphylococcus aureus to the antibiotic” value (from here on “resistance of Staphylococcus aureus”) with Staphylococcus aureus is given as “S”. In addition, in the data set with Klebsiella pneumoniae [2], the “resistance of Klebsiella pneumoniae to the antibiotic” value (from here on “resistance of Klebsiella pneumoniae”) is given as “S”.

Regarding `C[C@H]1[C@H](NC(=O)/C(=N\OC(C)(C)C(=O)O)c2csc(N)n2)C(=O)N1S(=O)(=O)O` [ATM, aztreonam], the “resistance of Pseudomona aeruginosa” value in the data set on Pseudomona aeruginosa was “S”.

Turning to `CC(C)(O/N=C(\C(=O)N[C@@H]1C(=O)N2C(C(=O)[O-])=C(C[n+]3ccccc3)CS[C@H]12)c1csc(N)n1)C(=O)O` [CAZ, ceftazidime], the “resistance of Pseudomona aeruginosa” value in the data set with Pseudomona aeruginosa is “S”. In addition, the “resistance of Escherichia coli” value in the data set with Escherichia coli is “R”. Further, the “drug resistant spectrum” value with Klebsiella pneumoniae [1] is recorded as “S”. In addition, the “resistance of Klebsiella pneumoniae” value with Klebsiella pneumoniae [2] is given as “S”.

With `CCN1CCN(C(=O)N[C@@H](C(=O)N[C@@H]2C(=O)N3C(C(=O)O)=C(CSc4nnnn4C)CS[C@H]23)c2ccc(O)cc2)C(=O)C1=O` [CFP, cefoperazone], the “resistance of Pseudomona aeruginosa” value in the data set on Pseudomona aeruginosa is given as “S”.

For `O=C(N[C@H](CO)[C@H](O)c1ccc([N+](=O)[O-])cc1)C(Cl)Cl` [CHL, chloramphenicol], in the data set on Escherichia coli, the “resistance of Escherichia coli” value is listed as “S”. Further, in the data set on Klebsiella pneumoniae [1], the “drug resistant spectrum” value was “R”. Moreover, in the data set with Klebsiella pneumoniae [2], the “resistance of Klebsiella pneumoniae” value is listed as “I”.

`CO/N=C(\C(=O)N[C@@H]1C(=O)N2C(C(=O)O)=C(CSc3nc(=O)c(=O)[nH]n3C)CS[C@H]12)c1csc(N)n1` [CRO, ceftriaxone]: the “resistance of Pseudomona aeruginosa” value in the data set with Pseudomona aeruginosa was “R”. The “resistance of Escherichia coli” value with Escherichia coli is “R”. Besides, in the data set with Klebsiella pneumoniae [1], the “drug resistant spectrum” value is listed as “R”. In addition, the “resistance of Klebsiella pneumoniae” value in the data set on Klebsiella pneumoniae [2] was “S”.

In the case of `CO/N=C(\C(=O)N[C@@H]1C(=O)N2C(C(=O)O)=C(COC(C)=O)CS[C@H]12)c1csc(N)n1` [CTX, cefotaxime], the “resistance of Pseudomona aeruginosa” value with Pseudomona aeruginosa is “S”. The “resistance of Escherichia coli” value with Escherichia coli is recorded as “R”. Further, the “drug resistant spectrum” value with Klebsiella pneumoniae [1] is reported as “R”. Further, the “resistance of Klebsiella pneumoniae” value with Klebsiella pneumoniae [2] is reported as “S”.

Regarding `CO/N=C(\C(=O)N[C@@H]1C(=O)N2C(C(=O)O)=C(COC(N)=O)CS[C@H]12)c1ccco1` [CXM, cefuroxime], the “resistance of Pseudomona aeruginosa” value with Pseudomona aeruginosa is “R”. In addition, the “resistance of Escherichia coli” value with Escherichia coli was “R”. In the data set on Klebsiella pneumoniae [1], the “drug resistant spectrum” value was “R”. In addition, the “resistance of Klebsiella pneumoniae” value in the data set on Klebsiella pneumoniae [2] is “S”.

As for `Cc1nnc(SCC2=C(C(=O)O)N3C(=O)[C@@H](NC(=O)Cn4cnnn4)[C@H]3SC2)s1` [CZO, cefazolin], the “resistance of Escherichia coli” value in the data set on Escherichia coli is reported as “R”. Also, in the data set with Klebsiella pneumoniae [1], the “drug resistant spectrum” value is given as “R”. The “resistance of Klebsiella pneumoniae” value in the data set with Klebsiella pneumoniae [2] is listed as “S”.

On to `CC[C@H]1OC(=O)[C@H](C)[C@@H](O[C@H]2C[C@@](C)(OC)[C@@H](O)[C@H](C)O2)[C@H](C)[C@@H](O[C@@H]2O[C@H](C)C[C@H](N(C)C)[C@H]2O)[C@](C)(O)C[C@@H](C)C(=O)[C@H](C)[C@@H](O)[C@]1(C)O` [ERY, erythromycin], for which the “resistance of Staphylococcus aureus” value in the data set with Staphylococcus aureus is reported as “R”.

Regarding `CO/N=C(\C(=O)N[C@@H]1C(=O)N2C(C(=O)[O-])=C(C[N+]3(C)CCCC3)CS[C@H]12)c1csc(N)n1` [FEP, cefepime], the “resistance of Pseudomona aeruginosa” value in the data set on Pseudomona aeruginosa is on record as “S”. The “resistance of Escherichia coli” value in the data set with Escherichia coli is on record as “R”. Moreover, the “drug resistant spectrum” value with Klebsiella pneumoniae [1] is listed as “S”. Besides, the “resistance of Klebsiella pneumoniae” value in the data set on Klebsiella pneumoniae [2] is listed as “S”.

On to `CO[C@@]1(NC(=O)Cc2cccs2)C(=O)N2C(C(=O)O)=C(COC(N)=O)CS[C@@H]21` [FOX, cefoxitin], for which the “resistance of Escherichia coli” value with Escherichia coli is “R”. Also, in the data set with Klebsiella pneumoniae [1], the “drug resistant spectrum” value is “S”. Further, the “resistance of Staphylococcus aureus” value in the data set with Staphylococcus aureus is reported as “S”. Further, in the data set on Klebsiella pneumoniae [2], the “resistance of Klebsiella pneumoniae” value is on record as “S”.

Turning to `C[C@H]1COc2c(N3CCN(C)CC3)c(F)cc3c(=O)c(C(=O)O)cn1c23` [LEV, left-handed oxygen fluorine], the “resistance of Pseudomona aeruginosa” value with Pseudomona aeruginosa was “S”.

`CCn1cc(C(=O)O)c(=O)c2cc(F)c(N3CCNCC3)cc21` [NOR, norfloxacin]: the “resistance of Pseudomona aeruginosa” value with Pseudomona aeruginosa is listed as “S”.

In the case of `Cc1onc(-c2ccccc2)c1C(=O)N[C@@H]1C(=O)N2[C@@H]1SC(C)(C)[C@@H]2C(=O)O` [OXA, oxacillin], the “resistance of Staphylococcus aureus” value in the data set on Staphylococcus aureus is “S”.

On to `CCN1CCN(C(=O)N[C@@H](C(=O)N[C@@H]2C(=O)N3[C@@H]2SC(C)(C)[C@@H]3C(=O)O)c2ccccc2)C(=O)C1=O` [PIP, piperacillin], for which the “resistance of Pseudomona aeruginosa” value in the data set with Pseudomona aeruginosa is reported as “S”. Besides, the “resistance of Escherichia coli” value in the data set with Escherichia coli is on record as “R”. In addition, the “drug resistant spectrum” value in the data set with Klebsiella pneumoniae [1] is “R”. Also, in the data set on Klebsiella pneumoniae [2], the “resistance of Klebsiella pneumoniae” value is on record as “I”.

For the compound `CO[C@H]1/C=C/O[C@@]2(C)Oc3c(C)c(O)c4c(O)c(c(/C=N/N5CCN(C)CC5)c(O)c4c3C2=O)NC(=O)/C(C)=C\C=C\[C@H](C)[C@H](O)[C@@H](C)[C@@H](O)[C@@H](C)[C@H](OC(C)=O)[C@@H]1C` [RIF, rifampin], the “resistance of Staphylococcus aureus” value in the data set on Staphylococcus aureus was “S”.

Regarding `NC[C@H]1O[C@H](O[C@H]2[C@H](O)[C@@H](O[C@H]3O[C@H](CO)[C@@H](O)[C@H](N)[C@H]3O)[C@H](N)C[C@@H]2N)[C@H](N)C[C@@H]1O` [TOB, tobramycin], in the data set with Pseudomona aeruginosa, the “resistance of Pseudomona aeruginosa” value is “S”.

With `CN[C@H](CC(C)C)C(=O)N[C@H]1C(=O)N[C@@H](CC(N)=O)C(=O)N[C@H]2C(=O)N[C@H]3C(=O)N[C@H](C(=O)N[C@H](C(=O)O)c4cc(O)cc(O)c4-c4cc3ccc4O)[C@H](O)c3ccc(c(Cl)c3)Oc3cc2cc(c3O[C@@H]2O[C@H](CO)[C@@H](O)[C@H](O)[C@H]2O[C@H]2C[C@](C)(N)[C@H](O)[C@H](C)O2)Oc2ccc(cc2Cl)[C@H]1O` [VAN, vancomycin], the “resistance of Staphylococcus aureus” value in the data set with Staphylococcus aureus was “S”.

As to amoxicillin/clavulanic acid [AMC], in the data set on Escherichia coli, the “resistance of Escherichia coli” value was “I”. For the same compound, in the data set on Klebsiella pneumoniae [1], the “drug resistant spectrum” value is “I”. The “resistance of Klebsiella pneumoniae” value in the data set on Klebsiella pneumoniae [2] is “S”.

As to ampicillin/sulbactam [SAM], in the data set on Pseudomona aeruginosa, the “resistance of Pseudomona aeruginosa” value is recorded as “R”. The “resistance of Staphylococcus aureus” value in the data set on Staphylococcus aureus is “S”.

penicillin [PNE]: in the data set with Staphylococcus aureus, the “resistance of Staphylococcus aureus” value is “R”.

With piperacillin/tazobactam [TZP], the “resistance of Pseudomona aeruginosa” value in the data set on Pseudomona aeruginosa was “S”. For the same compound, in the data set with Escherichia coli, the “resistance of Escherichia coli” value is on record as “I”. The “drug resistant spectrum” value in the data set with Klebsiella pneumoniae [1] is recorded as “I”. Moreover, the “resistance of Klebsiella pneumoniae” value with Klebsiella pneumoniae [2] is “S”.

Take sulperazon [CLS]: the “resistance of Pseudomona aeruginosa” value with Pseudomona aeruginosa is “S”.

Take ticarcillin/clavulanic acid [TIM]: the “resistance of Pseudomona aeruginosa” value with Pseudomona aeruginosa is given as “S”.

trimethoprim-sulfamethoxazole [SXT]: in the data set on Escherichia coli, the “resistance of Escherichia coli” value is given as “R”. The “drug resistant spectrum” value in the data set with Klebsiella pneumoniae [1] is listed as “R”. Also, the “resistance of Staphylococcus aureus” value in the data set on Staphylococcus aureus was “S”. For the same compound, the “resistance of Klebsiella pneumoniae” value in the data set with Klebsiella pneumoniae [2] is on record as “R”.
